The assay deals with T1, WIZ (Homo sapiens, UniProt O95785+Q96SW2).
T1 construct: expressed in transfected cells
Put plainly: Quantification of WIZ protein levels in HiBit tag fusion protein assay (WIZ HiBit assay in 293T cells). The format is cell-based. The following applies: for Dmax at 25 µM / remaining activity at 25 µM: HEK-293T; for Dmax at 25 µM: read-out: % degradation of WIZ (100-Amax); for remaining activity at 25 µM: read-out: WIZ Amax; for DC50: WIZ HiBit assay in 293T cells, 10-point, 5-fold dilution, highest concentration 25 μM, about 18 hours, read-out: WIZ AC50. The method, then:
The HiBit system from Promega was used to develop high-throughput and quantitative assays to measure changes in WIZ protein levels in response to compounds. The HiBit tag was derived from a split Nanoluciferase and has the following protein sequence: […] (SEQ ID NO: 1). The complementary fragment of Nanoluciferase (known as LgBit, from Promega), was added to the HiBit tag to form an active Nanoluciferase enzyme whose activity can be precisely measured. In this way, the levels of a fusion protein with the HiBit tag can be quantified in cell lysates.
Lentiviral vectors, based on the Invitrogen™ pLenti6.2/V5 DEST backbone were constructed that places the HiBit tag upstream of WIZ and expressed the fusion protein from an HSVTK promotor.
To ensure moderate and consistent expression of the HiBit-WIZ fusion protein across all cells in the population, stable cell lines were constructed from cells harboring a single copy of the construct. Lentivirus packaged with the constructs were made using the ViraPower™kit from Invitrogen™. 293T cells from ATCC (Catalog number: CRL-3216), were infected with the virus at low multiplicity of infection and selected by 5 μg/mL blasticidin in culture media for 2 weeks.
The levels of HiBit-WIZ tagged fusion proteins in compound-treated cell lines were measured as follows:
On day 1, cells were diluted to 1.0×10^6 cells/ml in normal growth medium. 20 μL of cell suspension were plated in each well of a solid white 384-well plate. Plates were incubated overnight in a 37° C. and 5% CO2 humidified tissue culture incubator.
On day 2, serial dilutions of compounds were made in 384-well plates. Compound plates were set up with DMSO in columns 1, 2, 23, 24, and 10-point compound dilution series in column 3-12 and column 13-22. 10 mM stock solution of compound were placed into column 3 or 13 and a 1:5 serial dilution was carried out until there was a 10-point dilution series per compound. 50 nL of diluted compounds were transferred into the plated cells by Echo® (Labcyte) acoustic transfer. The highest concentration of compound was 25 μM. Plates were incubated overnight (about 18 hours) in a 37° C. and 5% CO2 humidified tissue culture incubator.
On day 3, plates were removed from the incubator and allowed to equilibrate at room temperature for 60 minutes. HiBit substrate (Nano-Glo® HiBit Lytic Detection System, Promega Catalogue number: N3050) was added as described by the manufacturers protocols. Plates were incubated at room temperature for 30 minutes and luminescence was read using an EnVision® reader (PerkinElmer®). Data was analyzed and visualized using the Spotfire® software package.
WIZ Amax reflects the DMSO-normalized, curve-fitted percentage of WIZ-HiBit remaining at 25 uM. It was calculated by normalizing DMSO controls to 100%, parametric curve fitting of the dose response data (10-point, 5-fold), followed by calculation of response at 25 uM using the fitted equation (nd=not determined).

Where [1] appears, read: DMSO-normalized, curve-fitted percentage of WIZ-HiBit remaining at 25 uM.

Each structure is given as a SMILES string.

T1 sequence (O95785 whole entry): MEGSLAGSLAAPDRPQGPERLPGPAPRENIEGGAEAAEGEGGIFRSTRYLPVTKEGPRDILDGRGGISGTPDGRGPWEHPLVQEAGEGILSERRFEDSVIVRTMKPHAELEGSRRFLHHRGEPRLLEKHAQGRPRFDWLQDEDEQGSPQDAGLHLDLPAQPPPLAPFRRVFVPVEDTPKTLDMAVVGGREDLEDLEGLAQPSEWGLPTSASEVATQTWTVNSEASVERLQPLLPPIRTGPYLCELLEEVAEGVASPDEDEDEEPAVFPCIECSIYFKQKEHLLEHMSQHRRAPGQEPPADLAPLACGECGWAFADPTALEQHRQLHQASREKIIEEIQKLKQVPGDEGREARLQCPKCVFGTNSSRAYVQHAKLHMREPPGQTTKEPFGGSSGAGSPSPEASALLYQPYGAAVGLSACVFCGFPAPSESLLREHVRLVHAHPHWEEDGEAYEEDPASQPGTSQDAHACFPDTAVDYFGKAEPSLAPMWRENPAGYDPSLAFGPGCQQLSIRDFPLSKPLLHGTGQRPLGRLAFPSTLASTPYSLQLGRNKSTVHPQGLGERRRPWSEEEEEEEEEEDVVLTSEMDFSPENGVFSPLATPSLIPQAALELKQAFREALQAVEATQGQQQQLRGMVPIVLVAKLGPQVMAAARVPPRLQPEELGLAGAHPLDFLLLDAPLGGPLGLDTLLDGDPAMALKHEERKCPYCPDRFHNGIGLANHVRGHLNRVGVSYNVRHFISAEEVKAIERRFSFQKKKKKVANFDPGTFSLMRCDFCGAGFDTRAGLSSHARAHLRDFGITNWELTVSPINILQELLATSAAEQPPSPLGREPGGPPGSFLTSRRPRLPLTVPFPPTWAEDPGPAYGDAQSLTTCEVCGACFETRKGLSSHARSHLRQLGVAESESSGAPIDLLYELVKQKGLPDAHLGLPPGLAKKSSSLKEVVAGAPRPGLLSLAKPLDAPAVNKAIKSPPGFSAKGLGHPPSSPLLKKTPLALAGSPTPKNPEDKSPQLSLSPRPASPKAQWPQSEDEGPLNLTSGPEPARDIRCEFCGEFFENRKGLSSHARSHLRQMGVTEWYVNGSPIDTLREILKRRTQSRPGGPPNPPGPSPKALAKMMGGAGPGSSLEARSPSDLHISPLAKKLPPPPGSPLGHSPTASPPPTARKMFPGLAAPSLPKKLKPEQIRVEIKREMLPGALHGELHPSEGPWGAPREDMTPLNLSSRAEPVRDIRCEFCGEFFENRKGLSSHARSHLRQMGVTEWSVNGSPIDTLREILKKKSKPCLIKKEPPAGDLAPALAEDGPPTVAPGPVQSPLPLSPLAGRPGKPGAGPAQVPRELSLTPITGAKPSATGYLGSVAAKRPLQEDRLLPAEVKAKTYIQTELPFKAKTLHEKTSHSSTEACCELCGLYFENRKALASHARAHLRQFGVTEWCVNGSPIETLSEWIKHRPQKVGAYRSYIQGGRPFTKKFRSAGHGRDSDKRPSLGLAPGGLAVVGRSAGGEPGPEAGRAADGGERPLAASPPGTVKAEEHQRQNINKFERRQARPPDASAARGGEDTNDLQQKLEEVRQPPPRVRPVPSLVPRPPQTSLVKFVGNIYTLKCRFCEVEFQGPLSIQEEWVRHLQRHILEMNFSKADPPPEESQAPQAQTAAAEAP
T1 sequence (Q96SW2 whole entry): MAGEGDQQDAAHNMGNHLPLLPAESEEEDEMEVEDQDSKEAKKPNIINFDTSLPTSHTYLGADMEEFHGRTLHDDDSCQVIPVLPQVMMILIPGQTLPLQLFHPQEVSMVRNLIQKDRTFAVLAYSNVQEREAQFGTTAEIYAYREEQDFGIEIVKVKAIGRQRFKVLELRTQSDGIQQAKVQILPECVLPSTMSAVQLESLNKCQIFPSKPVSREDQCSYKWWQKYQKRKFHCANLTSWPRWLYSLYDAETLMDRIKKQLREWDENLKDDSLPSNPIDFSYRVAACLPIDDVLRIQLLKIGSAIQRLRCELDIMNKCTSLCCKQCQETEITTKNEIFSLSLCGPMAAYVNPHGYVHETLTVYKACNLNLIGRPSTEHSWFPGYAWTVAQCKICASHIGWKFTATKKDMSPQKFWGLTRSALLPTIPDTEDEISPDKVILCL
T1 sequence (Q16531 whole entry partner): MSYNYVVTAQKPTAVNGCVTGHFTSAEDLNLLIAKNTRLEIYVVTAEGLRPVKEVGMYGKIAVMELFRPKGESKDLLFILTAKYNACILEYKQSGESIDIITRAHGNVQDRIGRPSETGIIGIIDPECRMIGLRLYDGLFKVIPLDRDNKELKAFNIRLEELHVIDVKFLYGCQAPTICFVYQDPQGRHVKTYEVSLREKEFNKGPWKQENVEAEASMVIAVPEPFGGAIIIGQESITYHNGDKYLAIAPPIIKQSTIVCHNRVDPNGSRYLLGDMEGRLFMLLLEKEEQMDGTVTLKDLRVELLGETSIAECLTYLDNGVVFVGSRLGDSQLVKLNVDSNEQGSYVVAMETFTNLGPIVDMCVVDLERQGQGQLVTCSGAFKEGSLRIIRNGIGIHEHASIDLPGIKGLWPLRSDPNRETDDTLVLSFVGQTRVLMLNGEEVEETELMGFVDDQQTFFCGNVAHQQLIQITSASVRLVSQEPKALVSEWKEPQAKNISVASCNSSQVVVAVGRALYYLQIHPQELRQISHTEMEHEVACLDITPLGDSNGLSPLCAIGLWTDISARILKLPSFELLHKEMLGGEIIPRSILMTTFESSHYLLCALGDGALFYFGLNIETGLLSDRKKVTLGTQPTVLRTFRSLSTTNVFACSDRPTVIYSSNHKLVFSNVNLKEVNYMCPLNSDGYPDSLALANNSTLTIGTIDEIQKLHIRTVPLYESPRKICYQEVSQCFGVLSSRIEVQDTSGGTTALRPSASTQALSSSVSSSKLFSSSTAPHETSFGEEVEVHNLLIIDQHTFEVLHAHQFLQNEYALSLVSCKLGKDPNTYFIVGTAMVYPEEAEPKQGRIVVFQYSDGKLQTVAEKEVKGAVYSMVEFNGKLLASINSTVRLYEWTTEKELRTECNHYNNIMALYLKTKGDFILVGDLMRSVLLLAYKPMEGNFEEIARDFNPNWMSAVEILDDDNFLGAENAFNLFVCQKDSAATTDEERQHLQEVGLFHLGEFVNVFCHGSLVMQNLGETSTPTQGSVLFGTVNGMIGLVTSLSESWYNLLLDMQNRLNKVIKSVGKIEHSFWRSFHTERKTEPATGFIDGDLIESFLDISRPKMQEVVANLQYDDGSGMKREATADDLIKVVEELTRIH

For `O=C1CCN(c2noc3ccc(CC4CCNC4)cc23)C(=O)N1` (stereo not drawn) [Example 48, 1-(5-(pyrrolidin-3-ylmethyl)benzo[d]isoxazol-3-yl)dihydropyrimidine-2,4(1H,3H)-dione], the DC50 was found to be 1160 nM. For the setting “100 minus Amax at 25 uM”, the Dmax at 25 µM was determined as 77%. Besides, under setting [1], the remaining activity at 25 µM turned out to be 23%.
On the same counts, the results for `CC[C@@H]1CN(CC(C)C)CCN1Cc1ccc2onc(N3CCC(=O)NC3=O)c2c1` [Example 88, (R)-1-(5-((2-ethyl-4-isobutylpiperazin-1-yl)methyl)benzo[d]isoxazol-3-yl)dihydropyrimidine-2,4(1H,3H)-dione] are 8 nM, 85% and 15%.
For `O=C1CCN(c2noc3ccc(CN4CCN(Cc5cccnc5)CC4)cc23)C(=O)N1` [Example 26, 1-(5-((4-(pyridin-3-ylmethyl)piperazin-1-yl)methyl)benzo[d]isoxazol-3-yl)dihydropyrimidine-2,4(1H,3H)-dione], in that order: 190 nM, 86% and 14%.
For the compound `CC(C)(C)OC(=O)N1CCC(Cc2ccc3onc(N4CCC(=O)NC4=O)c3c2)CC1` [Example 1a, tert-butyl 4-((3-(2,4-dioxotetrahydropyrimidin-1(2H)-yl)benzo[d]isoxazol-5-yl)methyl)piperidine-1-carboxylate], the DC50 worked out at 160 nM. The Dmax at 25 µM (100 minus Amax at 25 uM) came to 85%. Moreover, under setting [1], the remaining activity at 25 µM is 15%.
For `CC(C)N1CCN(Cc2ccc3onc(N4CCC(=O)NC4=O)c3c2)[C@H](C)C1` [Example 69, (R)-1-(5-((4-isopropyl-2-methylpiperazin-1-yl)methyl)benzo[d]isoxazol-3-yl)dihydropyrimidine-2,4(1H,3H)-dione], in that order: 45 nM, 83% and 17%.
On the same counts, the results for `C[C@@H]1CN(CC2COC2)CCN1Cc1ccc2onc(N3CCC(=O)NC3=O)c2c1` [Example 68, (R)-1-(5-((2-methyl-4-(oxetan-3-ylmethyl)piperazin-1-yl)methyl)benzo[d]isoxazol-3-yl)dihydropyrimidine-2,4(1H,3H)-dione] are 40 nM, 83% and 17%.
For `CC(C)(C)OC(=O)N1C[C@@H]2C[C@H]1CN2Cc1ccc2onc(N3CCC(=O)NC3=O)c2c1` [Example 93, tert-butyl (1S,4S)-5-((3-(2,4-dioxotetrahydropyrimidin-1(2H)-yl)benzo[d]isoxazol-5-yl)methyl)-2,5-diazabicyclo[2.2.1]heptane-2-carboxylate], in that order: 2180 nM, 61% and 39%.
As to `O=C1CCN(c2noc3ccc(CC4C[C@H]5CC[C@@H](C4)N5)cc23)C(=O)N1` (stereo partly drawn) [Example 57, 1-(5-(((1R,5S)-8-azabicyclo[3.2.1]octan-3-yl)methyl)benzo[d]isoxazol-3-yl)dihydropyrimidine-2,4(1H,3H)-dione], the DC50 turned out to be 649 nM. For the same compound, the “% degradation of WIZ (100-Amax)” value (100 minus Amax at 25 uM) was 80%. For the same compound, the “WIZ Amax” value under setting [1] worked out at 20%.
Regarding `O=C1CCN(c2noc3ccc(CN4CCN5C(=O)COC[C@H]5C4)cc23)C(=O)N1` [Example 116, (R)-1-(5-((4-oxohexahydropyrazino[2,1-c][1,4]oxazin-8(1H)-yl)methyl)benzo[d]isoxazol-3-yl)dihydropyrimidine-2,4(1H,3H)-dione], the DC50 stood at 193 nM. The Dmax at 25 µM (100 minus Amax at 25 uM) turned out to be 78%. Under setting [1], the remaining activity at 25 µM is 22%.
As for `C[C@@H]1CN(S(=O)(=O)N2CCCC2)CCN1Cc1ccc2onc(N3CCC(=O)NC3=O)c2c1` [Example 74, (R)-1-(5-((2-methyl-4-(pyrrolidin-1-ylsulfonyl)piperazin-1-yl)methyl)benzo[d]isoxazol-3-yl)dihydropyrimidine-2,4(1H,3H)-dione], the DC50 is 437 nM. Further, the Dmax at 25 µM (100 minus Amax at 25 uM) came out at 76%. The remaining activity at 25 µM under setting [1] came out at 24%.

The values are drawn from patent publication US20250276964A1 (Novartis AG, priority 2021, published 2025).
